Results reported in patent publication US8192962B2, “Processes for detecting toxic substances” (Daikin Industries, Ltd., priority 2001, dated 2012).

Test system: Unknown protein yeast genes
Assay: DNA chip mRNA expression in yeast, unknown protein yeast genes (Table 1)
Assay type: cell-based, Saccharomyces cerevisiae S288C
Method in brief: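 Values are treated/untreated fluorescence ratios from a whole-genome yeast DNA chip hybridized over 12 hours at 65° C with Cy3- or Cy5-labelled cDNA from poly(A) mRNA. Log-phase S288C yeast in YPD at 25° C had received a single toxic chemical for two hours, dosed to slow growth without killing.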

O=[N+]([O-])c1cc[n+]([O-])c2ccccc12 [(5), 4-nitroquinolin-N-oxide]
The level of expressed mRNA in the presence of chemical substance/The level of expressed mRNA in the absence of chemical substance (yeast gene YAL053W, incubated two hours with chemical substance): 0.8
The level of expressed mRNA in the presence of chemical substance/The level of expressed mRNA in the absence of chemical substance (yeast gene YAR023C): 1.3
The level of expressed mRNA in the presence of chemical substance/The level of expressed mRNA in the absence of chemical substance (yeast gene YBL048W): 1.3
The level of expressed mRNA in the presence of chemical substance/The level of expressed mRNA in the absence of chemical substance (yeast gene YBL107C): 1.2
The level of expressed mRNA in the presence of chemical substance/The level of expressed mRNA in the absence of chemical substance (yeast gene YDL072C, incubated two hours with chemical substance): 1.4
The level of expressed mRNA in the presence of chemical substance/The level of expressed mRNA in the absence of chemical substance (yeast gene YDL086W): 1.3
The level of expressed mRNA in the presence of chemical substance/The level of expressed mRNA in the absence of chemical substance (yeast gene YDL129W): 1.3
The level of expressed mRNA in the presence of chemical substance/The level of expressed mRNA in the absence of chemical substance (yeast gene YDL204W, incubated two hours with chemical substance): 1.0
The level of expressed mRNA in the presence of chemical substance/The level of expressed mRNA in the absence of chemical substance (yeast gene YDL222C, incubated two hours with chemical substance): 1.0
The level of expressed mRNA in the presence of chemical substance/The level of expressed mRNA in the absence of chemical substance (yeast gene YDR330W, incubated two hours with chemical substance): 1.2
The level of expressed mRNA in the presence of chemical substance/The level of expressed mRNA in the absence of chemical substance (yeast gene YDR359C): 1.3
The level of expressed mRNA in the presence of chemical substance/The level of expressed mRNA in the absence of chemical substance (yeast gene YDR411C, incubated two hours with chemical substance): 1.6
The level of expressed mRNA in the presence of chemical substance/The level of expressed mRNA in the absence of chemical substance (yeast gene YDR511W, incubated two hours with chemical substance): 1.0
The level of expressed mRNA in the presence of chemical substance/The level of expressed mRNA in the absence of chemical substance (yeast gene YDR533C): 1.3
The level of expressed mRNA in the presence of chemical substance/The level of expressed mRNA in the absence of chemical substance (yeast gene YDR545W, incubated two hours with chemical substance): 1.4
The level of expressed mRNA in the presence of chemical substance/The level of expressed mRNA in the absence of chemical substance (yeast gene YEL001C, incubated two hours with chemical substance): 0.9
The level of expressed mRNA in the presence of chemical substance/The level of expressed mRNA in the absence of chemical substance (yeast gene YER004W, incubated two hours with chemical substance): 1.5
The level of expressed mRNA in the presence of chemical substance/The level of expressed mRNA in the absence of chemical substance (yeast gene YER035W, incubated two hours with chemical substance): 1.5
The level of expressed mRNA in the presence of chemical substance/The level of expressed mRNA in the absence of chemical substance (yeast gene YER079W, incubated two hours with chemical substance): 0.8
The level of expressed mRNA in the presence of chemical substance/The level of expressed mRNA in the absence of chemical substance (yeast gene YER106W, incubated two hours with chemical substance): 1.6
The level of expressed mRNA in the presence of chemical substance/The level of expressed mRNA in the absence of chemical substance (yeast gene YER121W): 1.3
The level of expressed mRNA in the presence of chemical substance/The level of expressed mRNA in the absence of chemical substance (yeast gene YER158C, incubated two hours with chemical substance): 0.8
The level of expressed mRNA in the presence of chemical substance/The level of expressed mRNA in the absence of chemical substance (yeast gene YER163C, incubated two hours with chemical substance): 0.8
The level of expressed mRNA in the presence of chemical substance/The level of expressed mRNA in the absence of chemical substance (yeast gene YER175C, incubated two hours with chemical substance): 0.9
The level of expressed mRNA in the presence of chemical substance/The level of expressed mRNA in the absence of chemical substance (yeast gene YER189W): 1.3
The level of expressed mRNA in the presence of chemical substance/The level of expressed mRNA in the absence of chemical substance (yeast gene YFL006W, incubated two hours with chemical substance): 1.4
The level of expressed mRNA in the presence of chemical substance/The level of expressed mRNA in the absence of chemical substance (yeast gene YFL010C, incubated two hours with chemical substance): 1.3
The level of expressed mRNA in the presence of chemical substance/The level of expressed mRNA in the absence of chemical substance (yeast gene YFL024C): 1.1
The level of expressed mRNA in the presence of chemical substance/The level of expressed mRNA in the absence of chemical substance (yeast gene YFL032W, incubated two hours with chemical substance): 0.9
The level of expressed mRNA in the presence of chemical substance/The level of expressed mRNA in the absence of chemical substance (yeast gene YGL037C, incubated two hours with chemical substance): 0.9
The level of expressed mRNA in the presence of chemical substance/The level of expressed mRNA in the absence of chemical substance (yeast gene YGL047W, incubated two hours with chemical substance): 1.3
The level of expressed mRNA in the presence of chemical substance/The level of expressed mRNA in the absence of chemical substance (yeast gene YGL053W, incubated two hours with chemical substance): 2.0
The level of expressed mRNA in the presence of chemical substance/The level of expressed mRNA in the absence of chemical substance (yeast gene YGL121C): 0.9
The level of expressed mRNA in the presence of chemical substance/The level of expressed mRNA in the absence of chemical substance (yeast gene YGL199C, incubated two hours with chemical substance): 0.7
The level of expressed mRNA in the presence of chemical substance/The level of expressed mRNA in the absence of chemical substance (yeast gene YGR038W): 1.3
The level of expressed mRNA in the presence of chemical substance/The level of expressed mRNA in the absence of chemical substance (yeast gene YGR101W, incubated two hours with chemical substance): 1.2
The level of expressed mRNA in the presence of chemical substance/The level of expressed mRNA in the absence of chemical substance (yeast gene YGR110W): 0.9
The level of expressed mRNA in the presence of chemical substance/The level of expressed mRNA in the absence of chemical substance (yeast gene YGR130C, incubated two hours with chemical substance): 1.4
The level of expressed mRNA in the presence of chemical substance/The level of expressed mRNA in the absence of chemical substance (yeast gene YGR142W): 1.3
The level of expressed mRNA in the presence of chemical substance/The level of expressed mRNA in the absence of chemical substance (yeast gene YGR154C, incubated two hours with chemical substance): 1.2
The level of expressed mRNA in the presence of chemical substance/The level of expressed mRNA in the absence of chemical substance (yeast gene YGR221C, incubated two hours with chemical substance): 0.9
The level of expressed mRNA in the presence of chemical substance/The level of expressed mRNA in the absence of chemical substance (yeast gene YHR138C, incubated two hours with chemical substance): 1.5
The level of expressed mRNA in the presence of chemical substance/The level of expressed mRNA in the absence of chemical substance (yeast gene YHR199C, incubated two hours with chemical substance): 1.2
The level of expressed mRNA in the presence of chemical substance/The level of expressed mRNA in the absence of chemical substance (yeast gene YIL023C, incubated two hours with chemical substance): 1.3
The level of expressed mRNA in the presence of chemical substance/The level of expressed mRNA in the absence of chemical substance (yeast gene YIL041W, incubated two hours with chemical substance): 0.5
The level of expressed mRNA in the presence of chemical substance/The level of expressed mRNA in the absence of chemical substance (yeast gene YIL057C): 1.3
The level of expressed mRNA in the presence of chemical substance/The level of expressed mRNA in the absence of chemical substance (yeast gene YIL087C, incubated two hours with chemical substance): 1.4
The level of expressed mRNA in the presence of chemical substance/The level of expressed mRNA in the absence of chemical substance (yeast gene YIR041W): 1.3
The level of expressed mRNA in the presence of chemical substance/The level of expressed mRNA in the absence of chemical substance (yeast gene YJL057C, incubated two hours with chemical substance): 1.5
The level of expressed mRNA in the presence of chemical substance/The level of expressed mRNA in the absence of chemical substance (yeast gene YJL066C, incubated two hours with chemical substance): 0.8
The level of expressed mRNA in the presence of chemical substance/The level of expressed mRNA in the absence of chemical substance (yeast gene YJL082W, incubated two hours with chemical substance): 1.7
The level of expressed mRNA in the presence of chemical substance/The level of expressed mRNA in the absence of chemical substance (yeast gene YJL100W): 1.3
The level of expressed mRNA in the presence of chemical substance/The level of expressed mRNA in the absence of chemical substance (yeast gene YJL151C, incubated two hours with chemical substance): 1.3
The level of expressed mRNA in the presence of chemical substance/The level of expressed mRNA in the absence of chemical substance (yeast gene YJL152W, incubated two hours with chemical substance): 1.6
The level of expressed mRNA in the presence of chemical substance/The level of expressed mRNA in the absence of chemical substance (yeast gene YJL161W, incubated two hours with chemical substance): 1.1
The level of expressed mRNA in the presence of chemical substance/The level of expressed mRNA in the absence of chemical substance (yeast gene YJL171C, incubated two hours with chemical substance): 1.0
The level of expressed mRNA in the presence of chemical substance/The level of expressed mRNA in the absence of chemical substance (yeast gene YJR008W, incubated two hours with chemical substance): 1.4
The level of expressed mRNA in the presence of chemical substance/The level of expressed mRNA in the absence of chemical substance (yeast gene YJR054W, incubated two hours with chemical substance): 1.0
